# Patent publication US20070134261A1, “Effectors of innate immunity” (priority 2001, published 2007)
# Residues, ends and D or L forms follow the SMILES beside them.
# Assays:
# A549 epithelial cells = experiment: Human Operon arrays (PRHU04-S1) of A549 cells treated with peptide alone (Tables 31-37, 53); settings: peptide 50 μg/ml, 4 h, A549 cells
# [1] = system: mouse macrophage RAW cell line; experiment: Phosphorylation of MAP kinases (Western blot) in RAW cell line; assay type: cell-based
# Protocol: The cells were seeded at 2.5×10^5−5×10^5 cells/ml and left overnight. They were washed once in media, serum starved in the morning (serum free media—4 hrs). The media was removed and replaced with PBS, then sat at 37° C. for 15 minutes and then brought to room temp for 15 minutes. Peptide was added (concentrations 0.1 μg/ml−50 μg/ml) or H2O and incubated 10 min. The PBS was very quickly removed and replaced with ice-cold radioimmunoprecipitation (RIPA) buffer with inhibitors (NaF, B-glycerophosphate, MOL, Vanadate, PMSF, Leupeptin Aprotinin). The plates were shaken on ice for 10-15 min or until the cells were lysed and the lysates collected. The procedure for THP-1 cells was slightly different; more cells (2×10^6) were used. They were serum starved overnight, and to stop the reaction 1 ml of ice-cold PBS was added then they sat on ice 5-10 min, were spun down then resuspended in RIPA. Protein concentrations were determined using a protein assay (Pierce, Rockford, Ill.). Cell lysates (20 μg of protein) were separated by SDS-PAGE and transferred to nitrocellulose filters. […] The freshly harvested cells were consistently >99% viable as assessed by their ability to exclude trypan blue. […] Protein content was analyzed and approximately 30 μg of each sample was loaded in a 12% SDS-PAGE gel. […] Phosphorylation was detected with phosphorylation-specific antibodies.
compound,measurement,setting,value
CSCC[C@H](NC(=O)[C@H](CO)NC(=O)[C@@H](NC(=O)[C@H](CCCCN)NC(=O)[C@H](Cc1ccccc1)NC(=O)[C@H](CS)NC(=O)[C@H](CO)NC(=O)[C@H](CCCNC(=N)N)NC(=O)[C@@H](N)CCCCN)C(C)C)C(=O)N[C@@H](CCCNC(=N)N)C(=O)NCC(=O)N[C@H](C(=O)N[C@@H](CO)C(=O)N[C@@H](CCCNC(=N)N)C(=O)N[C@@H](CCCNC(=N)N)C(=O)N[C@@H](CCCNC(=N)N)C(=O)N[C@@H](CS)C(=O)N[C@@H](CCCCN)C(=O)O)C(C)C [SEQ ID NO: 27] (H-KRSCFKVSMRGVSRRRCK-OH; N-terminus and C-terminus assumed),"ID#:ctrl expression ratio, AB002359 phosphoribosyl formylglycina midine synthase",A549 epithelial cells,2.7
same,"ID#:ctrl expression ratio, AB006537 IL-1R accessory protein",A549 epithelial cells,7.0
same,"ID#:ctrl expression ratio, AB011124 KIAA0552 gene product",A549 epithelial cells,72.0
same,"ID#:ctrl expression ratio, AB014536 copine III",A549 epithelial cells,9.5
same,"ID#:ctrl expression ratio, AB018285 KIAA0742 protein",A549 epithelial cells,13.9
same,"ID#:ctrl expression ratio, AB020659 KIAA0852 protein",A549 epithelial cells,7.6
same,"ID#:ctrl expression ratio, AC004774 distal-less homeo box 5",A549 epithelial cells,6.3
same,"ID#:ctrl expression ratio, AC005154 unkown",A549 epithelial cells,7.2
same,"ID#:ctrl expression ratio, AF000237 1-acylglycerol-3-phosphate O-acyltransferase 2",A549 epithelial cells,2.5
same,"ID#:ctrl expression ratio, AF012086 RAN binding protein 2-like 1",A549 epithelial cells,4.0
same,"ID#:ctrl expression ratio, AF030555 fatty-acid-Coenzyme A ligase_long-chain 4",A549 epithelial cells,2.2
same,"ID#:ctrl expression ratio, AF035309 proteasome 26S subunit ATPase 5",A549 epithelial cells,6.6
same,"ID#:ctrl expression ratio, AF038664 UDP-Gal:beta GlcNAc beta 1_4-galactosyltransferase",A549 epithelial cells,22.2
same,"ID#:ctrl expression ratio, AF042378 spindle pole body protein",A549 epithelial cells,3.0
same,"ID#:ctrl expression ratio, AF052138 unknown",A549 epithelial cells,2.8
same,"ID#:ctrl expression ratio, AF052183 unknown",A549 epithelial cells,3.7
same,"ID#:ctrl expression ratio, AF071510 lecithin retinol acyltransferase",A549 epithelial cells,10.3
same,"ID#:ctrl expression ratio, AF074723 RNA polymerase II transcriptional regulation mediator",A549 epithelial cells,3.2
same,"ID#:ctrl expression ratio, AF080579 Homo sapiens integral membrane protein",A549 epithelial cells,3.0
same,"ID#:ctrl expression ratio, AF088868 fibrousheathin II",A549 epithelial cells,10.0
same,"ID#:ctrl expression ratio, AF093265 Homer neuronal immediate early gene_3",A549 epithelial cells,13.3
same,"ID#:ctrl expression ratio, AF124735 LIM HOX gene 2",A549 epithelial cells,4.4
same,"ID#:ctrl expression ratio, AF131831 unknown",A549 epithelial cells,7.0
same,"ID#:ctrl expression ratio, AF151043 hypothetical protein",A549 epithelial cells,2.2
same,"ID#:ctrl expression ratio, AF251040 putative nuclear protein",A549 epithelial cells,3.4
same,"ID#:ctrl expression ratio, AJ005273 antigenic determinant of recA protein",A549 epithelial cells,11.1
same,"ID#:ctrl expression ratio, AK000161 hypothetical protein",A549 epithelial cells,8.7
same,"ID#:ctrl expression ratio, AK000227 hypothetical protein",A549 epithelial cells,7.1
same,"ID#:ctrl expression ratio, AK000541 hypothetical protein",A549 epithelial cells,13.9
same,"ID#:ctrl expression ratio, AK000576 hypothetical protein",A549 epithelial cells,9.3
same,"ID#:ctrl expression ratio, AK001075 hypothetical protein",A549 epithelial cells,2.6
same,"ID#:ctrl expression ratio, AK001135 Sec23-interacting protein p125",A549 epithelial cells,4.5
same,"ID#:ctrl expression ratio, AK001154 hypothetical protein",A549 epithelial cells,4.4
same,"ID#:ctrl expression ratio, AK001890 unknown",A549 epithelial cells,3.5
same,"ID#:ctrl expression ratio, AL024493 unknown",A549 epithelial cells,13.5
same,"ID#:ctrl expression ratio, AL031121 unknown",A549 epithelial cells,3.7
same,"ID#:ctrl expression ratio, AL031588 hypothetical protein",A549 epithelial cells,20.2
same,"ID#:ctrl expression ratio, AL035562 paired box gene 1",A549 epithelial cells,81.9
same,"ID#:ctrl expression ratio, AL080077 unknown",A549 epithelial cells,2.0
same,"ID#:ctrl expression ratio, AL096803 unknown",A549 epithelial cells,18.3
same,"ID#:ctrl expression ratio, AL110125 unknown",A549 epithelial cells,2.7
same,"ID#:ctrl expression ratio, AL133051 unknown",A549 epithelial cells,6.3
same,"ID#:ctrl expression ratio, AL133605 unknown",A549 epithelial cells,4.2
same,"ID#:ctrl expression ratio, AL137268 KIAA0759 protein",A549 epithelial cells,2.3
same,"ID#:ctrl expression ratio, AL137461 unknown",A549 epithelial cells,9.0
same,"ID#:ctrl expression ratio, AL137540 unknown",A549 epithelial cells,2.6
same,"ID#:ctrl expression ratio, AL137577 unknown",A549 epithelial cells,6.2
same,"ID#:ctrl expression ratio, AL137718 unknown",A549 epithelial cells,8.0
same,"ID#:ctrl expression ratio, D00760 proteasome subunit_alpha type_2",A549 epithelial cells,2.6
same,"ID#:ctrl expression ratio, D12676 CD36 antigen",A549 epithelial cells,3.4
same,"ID#:ctrl expression ratio, D31891 SET domain_bifurcated_1",A549 epithelial cells,6.0
same,"ID#:ctrl expression ratio, D42053 site-1 protease",A549 epithelial cells,7.1
same,"ID#:ctrl expression ratio, D50405 histone deacetylase 1",A549 epithelial cells,7.2
same,"ID#:ctrl expression ratio, D80000 Segregation of mitotic chromosomes 1",A549 epithelial cells,2.5
same,"ID#:ctrl expression ratio, D87120 osteoblast protein",A549 epithelial cells,2.0
same,"ID#:ctrl expression ratio, J03068 N-acylaminoacyl-peptide hydrolase",A549 epithelial cells,5.0
same,"ID#:ctrl expression ratio, L34587 transcription elongation factor B",A549 epithelial cells,16.3
same,"ID#:ctrl expression ratio, M34175 adaptor-related protein complex 2 beta 1 subunit",A549 epithelial cells,3.1
same,"ID#:ctrl expression ratio, M81933 cell division cycle 25A",A549 epithelial cells,3.1
same,"ID#:ctrl expression ratio, M97925 defensin alpha 5_Paneth cell-specific",A549 epithelial cells,35.9
same,"ID#:ctrl expression ratio, NM_004732 potassium voltage-gated channel",A549 epithelial cells,4.0
same,"ID#:ctrl expression ratio, NM_004862 LPS-induced TNF-alpha factor",A549 epithelial cells,4.8
same,"ID#:ctrl expression ratio, NM_006963 zinc finger protein 22",A549 epithelial cells,7.6
same,"ID#:ctrl expression ratio, NM_013329 GC-rich sequence DNA-binding factor candidate",A549 epithelial cells,14.3
same,"ID#:ctrl expression ratio, NM_013393 cell division protein FtsJ",A549 epithelial cells,5.8
same,"ID#:ctrl expression ratio, NM_014366 putative nucleotide binding protein_estradiol-induced",A549 epithelial cells,4.3
same,"ID#:ctrl expression ratio, NM_016015 CGI-68 protein",A549 epithelial cells,2.3
same,"ID#:ctrl expression ratio, S49953 DNA-binding transcriptional activator",A549 epithelial cells,4.0
same,"ID#:ctrl expression ratio, S57296 HER2/neu receptor",A549 epithelial cells,12.1
same,"ID#:ctrl expression ratio, U00115 zinc finger protein 51",A549 epithelial cells,2.2
same,"ID#:ctrl expression ratio, U13666 G protein-coupled receptor 1",A549 epithelial cells,5.4
same,"ID#:ctrl expression ratio, U33547 MHC class II antigen HLA-DRB6 mRNA",A549 epithelial cells,5.3
same,"ID#:ctrl expression ratio, U67156 mitogen-activated protein kinase kinase kinase 5",A549 epithelial cells,3.0
same,"ID#:ctrl expression ratio, U68018 MAD homolog 2",A549 epithelial cells,2.2
same,"ID#:ctrl expression ratio, U71092 G protein-coupled receptor 24",A549 epithelial cells,9.1
same,"ID#:ctrl expression ratio, U78305 protein phosphatase 1D",A549 epithelial cells,13.0
same,"ID#:ctrl expression ratio, U88528 cAMP responsive element binding protein",A549 epithelial cells,5.4
same,"ID#:ctrl expression ratio, U88666 SFRS protein kinase 2",A549 epithelial cells,5.9
same,"ID#:ctrl expression ratio, X59770 IL-1R type II",A549 epithelial cells,4.7
same,"ID#:ctrl expression ratio, X62744 MHC class II DM alpha",A549 epithelial cells,4.7
same,"ID#:ctrl expression ratio, X63563 polymerase II polypeptide B",A549 epithelial cells,8.1
same,"ID#:ctrl expression ratio, X89399 RAS p21 protein activator",A549 epithelial cells,14.9
CC[C@H](C)[C@H](N)C(=O)N[C@@H](CC(C)C)C(=O)N1CCC[C@H]1C(=O)N[C@@H](Cc1c[nH]c2ccccc12)C(=O)N[C@@H](CCCCN)C(=O)N[C@@H](Cc1c[nH]c2ccccc12)C(=O)N1CCC[C@H]1C(=O)N[C@@H](Cc1c[nH]c2ccccc12)C(=O)N[C@@H](Cc1c[nH]c2ccccc12)C(=O)N1CCC[C@H]1C(=O)N[C@@H](Cc1c[nH]c2ccccc12)C(=O)N[C@@H](CCCNC(=N)N)C(=O)N[C@@H](CCCNC(=N)N)C(N)=O [SEQ ID NO: 2],phosphorylation of p38 and ERK1/2,[1],dose dependent phosphorylation
